The supplement of paper PMC10307832

Tests used:
Experiment in all cases: relative viability (nuclei count vs DMSO), 5 days (fraction); higher = more cells survive
[1] = compound: CS(=O)(=O)c1ccc(C(=O)Nc2ccc(Cl)c(-c3ccccn3)c2)c(Cl)c1 [Vismodegib] + Cc1cc(Nc2cc(N3CCN(C)CC3)nc(Sc3ccc(NC(=O)C4CC4)cc3)n2)n[nH]1 [Tozasertib] (partner 0.1 µM)
How it was run: (§1)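 A single step with final 0.05% Triton X-100, 1% formaldehyde and 1 ug/ml Hoechst fixed the cells and stained nuclei 5 days after treatment. Lung cancer cell lines in 1536-well plates had been treated by pin tool the day after seeding with one drug alone or a fixed anchor-drug dose plus five library-drug doses (not always all listed) in √10 steps, and nuclei were counted on 4× images. Relative viability is the ratio of nuclei in treated wells to nuclei in vehicle wells, taken as the median of duplicate plates.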

[2] = compound: CS(=O)(=O)c1ccc(-c2cnc(N)c(C(=O)Nc3ccccc3)n2)cc1 [VE-821] + CS(=O)(=O)CCNCc1ccc(-c2ccc3ncnc(Nc4ccc(OCc5cccc(F)c5)c(Cl)c4)c3c2)o1 [Lapatinib] (partner 2 µM)
How it was run: as §1

[3] = compound: CS(=O)(=O)c1ccc(-c2cnc(N)c(C(=O)Nc3ccccc3)n2)cc1 [VE-821] + COc1cc2c(Oc3ccc(NC(=O)C4(C(=O)Nc5ccc(F)cc5)CC4)cc3F)ccnc2cc1OCCCN1CCOCC1 [Foretinib] (partner 0.25 µM)
How it was run: as §1

[4] = compound: CS(=O)(=O)c1ccc(C(=O)Nc2ccc(Cl)c(-c3ccccn3)c2)c(Cl)c1 [Vismodegib] + Nc1ncn([C@H]2C[C@H](O)[C@@H](CO)O2)c(=O)n1 [Decitabine] (partner 2 µM)
How it was run: as §1

| Cell Line | relative viability ([1]; first compound 0.08 µM) | relative viability ([1]; first compound 0.253 µM) | relative viability ([1]; first compound 0.8 µM) | relative viability ([1]; first compound 2.53 µM) | relative viability ([1]; first compound 8 µM) | relative viability ([2]; first compound 0.08 µM) | relative viability ([2]; first compound 0.253 µM) | relative viability ([2]; first compound 0.8 µM) | relative viability ([2]; first compound 2.53 µM) | relative viability ([2]; first compound 8 µM) | relative viability ([3]; first compound 0.08 µM) | relative viability ([3]; first compound 0.253 µM) | relative viability ([3]; first compound 0.8 µM) | relative viability ([3]; first compound 2.53 µM) | relative viability ([3]; first compound 8 µM) | relative viability ([4]; first compound 0.08 µM) | relative viability ([4]; first compound 0.253 µM) | relative viability ([4]; first compound 0.8 µM) | relative viability ([4]; first compound 2.53 µM) | relative viability ([4]; first compound 8 µM) |
| --- | --- | --- | --- | --- | --- | --- | --- | --- | --- | --- | --- | --- | --- | --- | --- | --- | --- | --- | --- | --- |
| HOP-62 | 0.307 | 0.327 | 0.345 | 0.343 | 0.332 | 1.16 | 1.03 | 0.958 | 1.06 | 0.947 | 1.14 | 1.04 | 1.07 | 1.22 | 1.09 | 0.227 | 0.22 | 0.208 | 0.22 | 0.183 |
| LC-2-ad | 0.504 | 0.545 | 0.427 | 0.434 | 0.462 | 1.06 | 1.01 | 1.08 | 1.07 | 0.963 | 1.04 | 1.05 | 1.03 | 1.17 | 1.03 | 0.746 | 0.717 | 0.834 | 0.693 | 0.777 |
| LCLC-97TM1 | 0.22 | 0.284 | 0.218 | 0.239 | 0.273 | 0.75 | 0.716 | 0.669 | 0.848 | 0.393 | 1.12 | 1.05 | 0.878 | 0.98 | 0.885 | 0.214 | 0.25 | 0.351 | 0.229 | 0.223 |
| LK-2 | 0.194 | 0.167 | 0.167 | 0.17 | 0.165 | 1.18 | 0.891 | 0.891 | 0.906 | 0.874 | 1.5 | 1.46 | 1.05 | 1.37 | 1.14 | 0.356 | 0.253 | 0.282 | 0.283 | 0.28 |
| LOU-NH91 | 0.622 | 0.688 | 0.644 | 0.656 | 0.675 | 0.758 | 0.821 | 0.764 | 0.697 | 0.655 | 0.982 | 0.946 | 0.86 | 0.986 | 0.928 | 0.796 | 0.806 | 0.84 | 0.819 | 0.81 |
| LU99A | 0.301 | 0.248 | 0.239 | 0.268 | 0.269 | 1.06 | 1.11 | 1.04 | 0.85 | 0.448 | 0.903 | 0.763 | 0.802 | 0.851 | 0.462 | 0.944 | 0.844 | 0.887 | 0.835 | 0.781 |
| LXF-289 | 0.22 | 0.185 | 0.2 | 0.224 | 0.213 | 1.02 | 0.993 | 0.911 | 1.07 | 0.966 | 1.02 | 0.991 | 0.98 | 1.04 | 1.07 | 0.324 | 0.414 | 0.369 | 0.363 | 0.431 |
| NCI-H23 | 0.362 | 0.425 | 0.386 | 0.297 | 0.301 | 1.19 | 1.07 | 1.27 | 0.989 | 0.394 | 1.19 | 1.13 | 0.889 | 0.688 | 0.39 | 0.362 | 0.321 | 0.329 | 0.323 | 0.358 |
| NCI-H322M | 0.483 | 0.485 | 0.503 | 0.473 | 0.443 | 0.555 |  | 0.654 | 0.627 | 0.508 | 1.07 | 0.879 | 0.89 | 0.858 | 0.393 | 0.694 | 0.651 | 0.661 | 0.822 | 0.635 |
| NCI-H358 | 0.0964 | 0.104 | 0.104 | 0.103 | 0.0976 | 0.445 | 0.376 | 0.486 | 0.553 | 0.489 | 0.687 | 0.598 | 0.591 | 0.896 | 0.624 | 0.21 | 0.228 | 0.21 | 0.256 | 0.225 |
| NCI-H460 | 0.55 | 0.447 | 0.377 | 0.367 | 0.298 | 1.33 | 0.996 | 0.82 | 0.729 | 0.398 | 1.02 | 0.979 | 0.841 | 0.919 | 0.17 | 0.603 | 0.467 | 0.544 | 0.486 | 0.54 |
| NCI-H520 | 0.392 | 0.452 | 0.481 | 0.385 | 0.433 | 0.874 | 0.845 |  | 0.789 | 0.519 | 0.853 | 0.727 | 0.454 | 1.45 | 0.762 | 0.491 | 0.445 | 0.572 | 0.459 | 0.499 |
| NCI-H596 | 1 | 0.814 | 0.932 | 0.838 | 0.769 | 1.06 | 0.87 | 1.12 | 1.26 | 1 | 0.867 | 0.617 | 0.928 | 0.905 | 0.607 | 0.889 | 0.967 | 0.979 | 0.997 | 1.07 |
| NCI-H647 | 0.253 | 0.205 | 0.265 | 0.188 | 0.227 | 1.15 | 0.884 | 1 | 1.16 | 0.535 | 1.51 | 1.29 | 1.01 | 1.14 | 0.801 | 0.38 | 0.327 | 0.38 | 0.385 | 0.409 |
| NCI-H650 | 0.725 | 0.778 | 0.705 | 0.743 | 0.718 | 0.887 | 0.929 | 0.903 | 0.957 | 0.982 | 1.04 | 1.05 | 1.08 | 1.04 | 1.07 | 0.33 | 0.314 | 0.329 | 0.344 | 0.298 |
| NCI-H661 | 0.352 | 0.339 | 0.353 | 0.359 | 0.365 | 0.592 | 0.427 | 0.396 | 0.486 | 0.381 | 0.991 | 1.04 | 0.95 | 1.08 | 0.935 | 0.47 | 0.528 | 0.549 | 0.575 | 0.577 |
